Marks after values point to notes of the source that are not given here.
Columns and labels:
[1] = target: alpha-glucosidase; set-up: method as in PMID 31986026; details: cited from earlier work
[2] = tested on: AML-12 cells; experiment: MTS cell viability assay; format: cell-based, mouse; details: up to 250 µg/mL; 24 h
Description: BEAS-2B, MCF10-A, and AML-12, cells were purchased from the American Tissue Type Culture Collection (ATCC; CRL-9609, CRL-10317, and CRL-2254) and cultured with a specific medium. BEAS-2B cells were cultured with LHC-9 media at 37 °C in an incubator with 5% CO2. […] Cells were grown to around 70% confluence on the culture flask, and passages (<10) were employed for all experimental conditions. MTS Cell Titer 96™ aqueous cell proliferation assay was used to determine cell viability. […] For that, 1 × 10^4 cells were plated on a 96-well plate with a growth medium of 100 μL/well. […] Fifteen microliters of MTS reagent (with PMS) was then added to each well and incubated for 3 h in the dark. Absorbance was recorded at 490 nm using a microplate reader (Infinite® 200 PRO, TECAN, Männedorf, Switzerland). For each experiment, cells with DMSO media served as control, and cells with only culture medium and MTS reagent served as the blank.

[3] = tested on: alpha-glucosidase; details: formation of p-nitrophenol; cited from earlier work
[4] = tested on: amyloid fibrils of glycated BSA (BSA/Fru + Glu); experiment: Inhibition of amyloid fibril formation, ThT assay (BSA/Fru + Glu); format: biochemical, bovine
Description: The formation of AGEs was measured after incubation of a system containing protein and carbohydrates. This assay was based on previous methods. The reaction system was obtained by adding 300 µL of plant extract or of the pure compound (at different concentrations), 150 µL D-fructose (200 mM), 150 µL of D-glucose (200 mM), and 300 µL of bovine serum albumin (BSA, 3 mg/mL) to a test tube. All these solutions, except plant extract, were dissolved in 0.05 M potassium phosphate buffer (pH 7.4) containing NaCl (100 mM) and NaN3 (0.02% w/v). The plant extract was prepared in a buffer containing 60% ethanol. The mixture was incubated in the dark at 37 °C for 7 days with constant stirring. After the incubation, 200 µL of the reaction mixture was transferred to a 96-well black plate, and fluorescent AGEs were measured using a microplate reader (Infinite® 200 PRO, TECAN, Männedorf, Switzerland) at λex = 360 and λem = 440 nm. […] The fluorescence readings for the experimental treatment were blanked against extract blanks to eliminate the baseline fluorescence of the sample. The percentage of the AGE inhibition and IC50 was calculated as described in Section 3.3.1.
The fibrillar state of modified BSA was determined with ThT as previously described. ThT is a probe that binds directly to amyloid fibrils to give a strong fluorescent signal and thus can be used to quantify β-amyloid due to protein glycation. […]

Oc1cc(O)cc(/C=C/c2ccc(O)c(O)c2)c1 [PIC, 3,3′,4′,5-trans-tetrahydroxystilbene]
IC50 [1]: 4.3 ± 0.07 µM | Viability of AML-12 cells [2]: maintained | Mechanism of alpha-glucosidase inhibition [3]: non-competitive | Inhibition of the formation of β-amyloid fibrils in vitro ([4]; abstract, glycation system not specified): up to 100% | Inhibition of Amyloid Fibrils (%), Fructose + Glucose ([4]; highest obtained, PESE 200, PIC 200, AMG 100 µg/mL, BSA/Fru + Glu): 100 ± 5.3 ^a %
